≈ marks a conversion by molar mass, not a printed value. Where “and” joins values, the source holds several entries; their conditions need not be identical. Equal values may be shown once. Read-outs that look alike come from different tables or passages of the source.

Assay [1] addresses T1, Acetylcholinesterase (Electrophorus electricus, Type VI-S) (Electrophorus electricus, UniProt O42275). The experiment in a line: AChE inhibition kinetics (Lineweaver–Burk / Michaelis–Menten). Type of assay: biochemical. Conditions: for Inhibition Type: Lineweaver–Burk plots. The protocol: The inhibition curves were plotted using linear regression (Lineweaver–Burk plot) on GraphPad Prism 10.3 (Figure 8).
The Km and Vmax values were calculated using a non-linear fit (Michaelis–Menten equation) (Table 6). The Ki value (inhibitor constant), the dissociation constant describing the binding affinity between the inhibitor and the enzyme, was calculated as described previously.
AChE inhibition was measured using Ellman’s method with slight modifications. The compounds were incubated with the enzyme and the substrate (10 mM ATC) for 15 min. Later, 15 mM DTNB was added, and the plate was incubated for 10 min at 37 °C. The absorbance was measured at 412 nm using a multimode reader (Synergy-H1 BioTek, Agilent, Santa Clara, CA, USA). Galantamine served as a positive control. Percent inhibition was computed using the equation: […]
Statistical analysis was performed by one-way ANOVA followed by Dunnett’s post hoc test. The data were registered as the mean ± SD of at least three experiments. The symbol *** represent p < 0.001 significance compared to the control. The IC50 values were determined using non-linear regression, and the Lineweaver–Burk plots were drawn using linear regression analysis by GraphPad Prism 10.3.

Assay [2] concerns the target T1, Acetylcholinesterase (Electrophorus electricus, Type VI-S). The experiment in a line: biochemical. Conditions: Electrophorus electricus AChE, mean of three experiments ± SD; read-out: IC50 anti-AChE activity (converted).
A further assay has as its target T2, Aβ1-42 fibrillization (Homo sapiens, UniProt P05067).
T2 construct: Aβ1–42 was purchased from GenicBio Inc; purchased GenicBio Inc
Put plainly: Thioflavin T (ThT) anti-Aβ fibrillization assay. Type of assay: biochemical. Conditions: mean ± SD (n = 3); for Aβ fibrillization inhibition: samples 500 μg/mL, 24 h.

Another assay relates to AChE. Conditions: cited from earlier work.
Assay [3] deals with LPS-treated animal models. Conditions: cited from earlier work.
The next assay relates to microglial cells. Conditions: cited from earlier work.
[4] abbreviates: listed as 9-methyl-9H-carbazole-2-carbaldehyde.
Where [5] appears, read: inhibitor 10 μg/mL, read-out: Ki.
Setting [6] is: inhibitor 30 μg/mL, read-out: Ki.
The mark [7] stands for this setting: no inhibitor concentration stated, read-out: Ki value.
Where [8] appears, read: pre-treatment, LPS-treated animal models.

T1 sequence (O42275 24-633): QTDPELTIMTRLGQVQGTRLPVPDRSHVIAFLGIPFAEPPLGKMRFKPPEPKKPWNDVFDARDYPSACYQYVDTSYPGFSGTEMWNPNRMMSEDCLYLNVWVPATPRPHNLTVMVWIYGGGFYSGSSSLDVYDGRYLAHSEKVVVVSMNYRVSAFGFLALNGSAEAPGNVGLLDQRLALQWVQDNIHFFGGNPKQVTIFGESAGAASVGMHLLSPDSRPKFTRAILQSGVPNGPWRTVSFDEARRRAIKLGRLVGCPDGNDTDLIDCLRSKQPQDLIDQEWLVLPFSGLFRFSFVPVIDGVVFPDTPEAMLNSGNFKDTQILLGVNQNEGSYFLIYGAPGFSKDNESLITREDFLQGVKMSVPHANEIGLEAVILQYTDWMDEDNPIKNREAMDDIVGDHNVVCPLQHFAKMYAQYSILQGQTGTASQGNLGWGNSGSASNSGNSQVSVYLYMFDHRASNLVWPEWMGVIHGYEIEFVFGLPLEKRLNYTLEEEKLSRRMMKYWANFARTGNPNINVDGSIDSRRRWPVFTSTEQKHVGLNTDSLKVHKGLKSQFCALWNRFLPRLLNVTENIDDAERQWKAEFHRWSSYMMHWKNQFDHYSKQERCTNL
T2 sequence (P05067 672-713): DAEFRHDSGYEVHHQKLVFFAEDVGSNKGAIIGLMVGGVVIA

A word on the Vmax: it is the rate approached at saturating substrate. Usually Ki stands for the dissociation constant of the complex between target and ligand, obtained from inhibition or displacement. Usually IC50 stands for the midpoint of a concentration-inhibition curve. As for `Cn1c2ccccc2c2ccc(C=O)cc21` [9-Methyl-9H-carbazole-2-carbaldehyde, 9-methyl-9H-carbazole-2-carbaldehyde], the “Inhibition Type” value in assay [1] is recorded as “Competitive”; in assay [1] (setting [4]), “Competitive inhibition”. Besides, the Vmax in assay [1] (inhibitor 10 μg/mL) was 0.3874 µmol/min/mg; in assay [1] (inhibitor 30 μg/mL), 0.3634 µmol/min/mg. Besides, the Ki in assay [1] (setting [5]) is 29200 nM; in assay [1] (setting [6]) it was 31400 nM; in assay [1] (setting [7]), about 30000 nM. Besides, the IC50 in assay [2] was 37600 nM. The Aβ fibrillization inhibition result at Aβ1-42 fibrillization is given as “did not show any inhibition”; at Aβ1-42 fibrillization (setting [4]) it was “no inhibition”.
Consider `COc1ccc2c3c1O[C@H]1C[C@@H](O)C=C[C@@]31CCN(C)C2` [Galantamine, galantamine], for which the “IC50 anti-AChE, previously reported value” with AChE was 0.31 µg/mL (≈ 1.08 µM).
Regarding `CC(C)=CCCC1(C)C=Cc2c(c(C)cc3c2[nH]c2ccccc23)O1` (centres unmarked) [Mahanimbine, mahanimbine], the “Inhibition Type” value in assay [1] is given as “Non-Competitive”; in assay [1] (listed as mahanimbine), “non-competitive inhibition”. Further, the figures for the Vmax in assay [1] (inhibitor 10 μg/mL) and in assay [1] (inhibitor 30 μg/mL) were 0.2098 µmol/min/mg and 0.2231 µmol/min/mg, respectively. Also, the Ki in assay [1] (setting [5]) was 599 nM; in assay [1] (setting [6]), 599 nM; in assay [1] (setting [7]), 440 to 590 nM. Moreover, in assay [2], the IC50 was ~603 nM and 603 nM. Moreover, the Aβ1-40 levels result in assay [3] (animal model) is “reduced”. In addition, the Cognition result in assay [3] (animal model) was “improved cognition”. Besides, the “ACh levels in the brain” value in assay [3] (setting [8]) is reported as “improved”. Also, in assay [3] (setting [8]), the “AChE in the brain” value was “inhibited”. The compound also came in with an Aβ fibrillization inhibition on Aβ1-42 fibrillization of 27.68 ± 2.71%.
As for `COc1cc(C)cc2c1[nH]c1ccccc12` [Murrayafoline A, murrayafoline A], the “Inhibition Type” value in assay [1] is “Competitive”; in assay [1] (listed as murrayafoline A), “Competitive inhibition”. In addition, the Vmax in assay [1] (inhibitor 10 μg/mL) is 0.3826 µmol/min/mg; in assay [1] (inhibitor 30 μg/mL), 0.3753 µmol/min/mg. Further, the figures for the Ki in assay [1] (setting [5]), in assay [1] (setting [6]) and in assay [1] (setting [7]) were 58700 nM, 61000 nM and about 60000 nM, respectively. For the same compound, in assay [2], the IC50 was 67800 nM. Further, the “Neuroprotective activity by reducing inflammation” value in the assay on microglial cells is “neuroprotective activity”. The same compound showed an Aβ fibrillization inhibition on Aβ1-42 fibrillization of 33.60 ± 0.55%.
On to `COc1cc2[nH]c3c(C/C=C(\C)CCC=C(C)C)c(O)ccc3c2cc1C` [Murrayanol, murrayanol], for which the “Inhibition Type” value in assay [1] is on record as “Competitive”; in assay [1] (listed as murrayanol), “Competitive inhibition”. Besides, the Vmax in assay [1] (inhibitor 10 μg/mL) was 0.3756 µmol/min/mg; in assay [1] (inhibitor 30 μg/mL) it was 0.3613 µmol/min/mg. The Ki in assay [1] (setting [5]) is 444 nM; in assay [1] (setting [6]), 470 nM; in assay [1] (setting [7]), ~450 nM and 450 nM and 440 to 590 nM. For the same compound, in assay [2], the IC50 was ~550 nM and 523 nM. On Aβ1-42 fibrillization, this compound gave an Aβ fibrillization inhibition of 40.83 ± 0.30%.
In general, inhibition refers to the relative decrease from the control value, in per cent. Turning to `O=S1(=O)OC(c2ccc(O)cc2)(c2ccc(O)cc2)c2ccccc21` [phenol red, reference compound], at Aβ1-42 fibrillization (phenol red 50 μM, read-out: Aβ fibrillization inhibition (positive control)), the inhibition at 50 µM stood at 67.86 ± 0.38%.

The record behind these values is article PMC12348157, “Neuroprotective Evaluation of Murraya Carbazoles: In Vitro and Docking Insights into Their Anti-AChE and Anti-Aβ Activities” (Molecules, 2025).
